For 2 compounds, IC50 results are on record in ChEMBL document CHEMBL5728478, “Factor XIIa inhibitors” (2021).

The target of this experiment is T1, Coagulation factor XII (Homo sapiens, UniProt P00748).
T1 sequence (P00748 whole entry): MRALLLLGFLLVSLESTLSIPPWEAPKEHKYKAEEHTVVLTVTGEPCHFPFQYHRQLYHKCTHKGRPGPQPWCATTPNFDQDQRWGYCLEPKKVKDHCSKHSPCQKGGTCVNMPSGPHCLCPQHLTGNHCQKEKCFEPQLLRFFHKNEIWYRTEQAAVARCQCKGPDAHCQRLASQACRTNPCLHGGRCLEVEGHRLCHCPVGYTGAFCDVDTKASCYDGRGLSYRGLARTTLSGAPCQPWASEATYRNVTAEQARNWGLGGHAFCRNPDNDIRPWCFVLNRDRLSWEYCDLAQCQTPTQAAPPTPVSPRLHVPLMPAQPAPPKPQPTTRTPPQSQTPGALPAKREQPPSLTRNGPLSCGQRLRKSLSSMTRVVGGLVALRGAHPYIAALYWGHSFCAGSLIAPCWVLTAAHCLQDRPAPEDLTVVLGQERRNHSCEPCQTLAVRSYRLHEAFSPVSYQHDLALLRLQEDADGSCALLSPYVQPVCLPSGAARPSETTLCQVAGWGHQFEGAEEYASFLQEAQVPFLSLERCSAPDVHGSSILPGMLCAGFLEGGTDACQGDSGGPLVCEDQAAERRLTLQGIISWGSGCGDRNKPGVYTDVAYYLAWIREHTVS
In words: Factor XIIa assay: Factor XIIa activity determinations were made in 50 mM HEPES buffer containing 150 mM NaCl, 5 mM CaCl2, and 0.1% PEG 8000 (polyethylene glycol; JT Baker or Fisher Scientific) at pH 7.4. Determinations were made using purified human Factor XIIa at a final concentration of […] (Sekisui Diagnostics) and the synthetic substrate, n-Acetyl-Lys-Pro-Arg-AFC, TFA salt (Sigma # C6608) at a concentration of 100 μM.

Regarding `C[N+](C)(C)CCCC[C@@H](NC1CCCCC1)C(=O)N1CC[C@@H](NC(=O)N2CCC3(CC2)CC3)[C@@H](C(=O)NCc2ccccc2)C1`, the concentration for half-maximal inhibition (IC50) (in general, the concentration that inhibits the measured activity by half) came to 5 nM.

For `O=C(NCc1cccs1)[C@H]1CN(C(=O)C(CC2CCNCC2)NC2CCCCC2)CC[C@H]1NC(=O)N1CCC2(CC1)CC2` (some centres not stated), the IC50 came out at 82.9 nM.
